Patent US6806257B1, “Flavones as inducible nitric oxide synthase inhibitors, cyclooxygenase-2 inhibitors and potassium channel activators” (priority 1999, dated 2004)
“Also recorded” adds a separate entry of the source. Like-named read-outs stand apart in the source and are kept apart here. Marks after values point to notes of the source that are not given here.

Columns and labels:
[1] = system: NF-kB (p65) / IkB; experiment: Nuclear p65 / cytosolic IkB western blot in LPS-treated RAW264.7 macrophages; type: cell-based, mouse; settings: 20 μg/ml, 100 ng/ml LPS for 30 minutes
Method: Western blots. Total cellular extract, cytosolic fractions (for IkB) and nuclear fraction (for p65 antibody) were prepared according to Muller et al., Immunobiology, 187, 233-256, 1993 and separated on sodium dodecyl sulfatepolyacrylamide minigels (8% for iNOS or COX-2, and 10% for IkB or p65) and transferred to immobilon polyvinylidene difluoride membranes (Millipore, Bedford, Mass.). The membrane was incubated overnight at 4° C. with 1% bovine serum albumin and then incubated with anti-iNos, COX-2, α-Tubulin monoclonal antibodies (Transduction Laboratories, Lexington, Ky.), anti-IkB or anti-p65 polyclonal antibodies (Santa Cruz Biochemicals, Santa Cruz, Calif.). iNOS, IkB, p65, Cox-2, α-Tubulin were detected by NBT and BCIP staining (Sigma Chemical Co., St. Louis, Mo.).
NF-kB is a transcription factor that is activated in response to stimulation by LPS, and activation of NF-kB is an essential factor in inducing iNOS gene expression in macrophages (Kim, Y. M., Biochem. Biophys. Res. Commun. 236, 655-660, 1997). To assess the effect of these compounds (20 μg/ml) on early stage of iNOS gene expression, the activation of NF-kB in RAW264.7 macrophages was examined using the electrophoretic mobility shift assay (EMSA) (FIGS. 6i and 6ii).

[2] = system: iNOS; experiment: LPS-induced nitrite production and iNOS expression in Bcl-2-overexpressed RAW264.7 cells; type: cell-based, mouse; settings: 20 μg/ml, LPS 100 ng/ml, Bcl-2/RAW-1 and Bcl-2/RAW-2 cells
[3] = system: iNOS; experiment: iNOS expression in cultured primary smooth muscle cells from porcine cerebral arteries (immunostaining, Western blot); type: cell-based
Method: Culture of smooth muscle cells. The entire brain with dura attached was removed and placed in ice-cold sterile phosphate-buffered saline (PBS) (140 mM NaCl, 4 mM KCl, 1 mM KH2PO4, pH 7.4) containing antibiotics (100 U/ml penicillin G potassium, 100 μg/ml streptomycin sulfate, and 0.25 μg/ml fungizone) (Fisher Scientific, Springfield, N.J.). The arteries of the circle of Willis were removed and cleaned of surrounding tissue under a dissecting microscope. The arteries were then placed on a sterile petri dish and sliced longitudinally. The luminal surface was rubbed with a sterile cotton swab to remove endothelial cells. The vessels were placed in DMEM (Dulbecco's Modified Eagle Medium, Life Technologies, Grand Island, N.Y.) containing antibiotics and stored overnight at 4° C. The vessels were cut into approximately 2×2-mm explants, placed in a 10 cm petri dish, covered with DMEM containing antibiotics plus 20% FBS (fetal bovine serum, Sigma Chemical Co., St Louis, Mo.), and placed in an incubator in an atmosphere of 5% CO2 in air at 37° C. […]
Western blots. […] Expression of iNOS was detected by NBT and BCIP staining (Sigma Chemical Co., St. Louis, Mo.).
Photomicrographs of immunofluorescence at 20× were immediately taken with an Olympus fluorescence microscope fitted with an FITC filter. […]

[4] = system: porcine cerebral arteries; experiment: In vitro tissue bath vasorelaxation of precontracted porcine cerebral arteries; settings: for EC50: Sus scrofa; for U-46619-induced active muscle tone: 0.1-30 μM
[5] = conclusion from blocker experiments

For `COc1c(O)cc2oc(-c3ccccc3)cc(=O)c2c1O` [oroxylin A, 5,7-dihydroxy-6-methoxy flavone], the “LPS-induced increase of nuclear p65 and decrease of cytosolic IkB” value [1] was “significantly inhibited”, the “LPS-induced iNOS gene expression” value [2] was “inhibited” and the LPS-induced nitrite production [2] was “inhibited”. The “LPS-induced iNOS-immunoreactive cultured smooth muscle cells” value ([3]; LPS 10 μg/ml 20 hours, concomitant 60 μM) was “drastically decreased; also recorded: inhibition”, the “LPS-induced iNOS proteins, Western blot” value ([3]; LPS 10 μg/ml, 30 μM and 60 μM) was “decreased by oroxylin A in a concentration-dependent manner” and the transient relaxation ([4]; 60 μM, KCl (80 mM)-pre-contracted arterial rings, n=5) was 20.2±1.63 % of PPV-induced maximum relaxation. The relaxation ([4]; 60 μM, same arteries contracted with U-46619, n=5) was 95.1±4.31 % of PPV-induced maximum relaxation, the “sustained relaxation in KCl-precontracted arteries” value ([4]; 80 mM KCl, 1-60 μM, with or without endothelial cells) was “did not induce sustained relaxation; also recorded: failed to induce sustained relaxation” and the “Percent of Maximum Control Relaxation” value ([4]; Oroxylin A 3 μM, after 4-AP (10 mM)) was 1.8 ± 1.6%. For the same compound, the “Percent of Maximum Control Relaxation” value ([4]; Oroxylin A 3 μM, after ETI (10 μM)) was 21.4 ± 2.1%, the “Percent of Maximum Control Relaxation” value ([4]; Oroxylin A 3 μM, after GLP (30 μM)) was 24.6 ± 3.4% and the “Percent of Maximum Control Relaxation” value ([4]; Oroxylin A 3 μM, after IBT (100 nM)) was 16.8 ± 3.1%. The “Percent of Maximum Control Relaxation” value ([4]; Oroxylin A 3 μM, after INDO (30 μM)) was 23.0 ± 1.8%, the “Percent of Maximum Control Relaxation” value ([4]; Oroxylin A 3 μM, after L-NNA (60 μM)) was 26.9 ± 3.4% and the “Percent of Maximum Control Relaxation” value ([4]; Oroxylin A 3 μM, after MCN (5 μM)) was 21.2 ± 3.4%. For the same compound, the “Percent of Maximum Control Relaxation” value ([4]; Oroxylin A 3 μM, after TEA (1 mM)) was 7.1 ± 3.0%, the “Percent of Maximum Control Relaxation” value ([4]; Oroxylin A 3 μM, after TEA (10 mM)) was 0** Percent and the “Percent of Maximum Control Relaxation” value ([4]; Oroxylin A 3 μM, control (no inhibitor), n=12) was 24.6 ± 1.9%. For the same compound, the “Percent of Maximum Control Relaxation” value ([4]; Oroxylin A 10 μM, after 4-AP (10 mM)) was 9.7 ± 2.0%, the “Percent of Maximum Control Relaxation” value ([4]; Oroxylin A 10 μM, after ETI (10 μM)) was 41.3 ± 4.4% and the “Percent of Maximum Control Relaxation” value ([4]; Oroxylin A 10 μM, after GLP (30 μM)) was 46.5 ± 7.1%. The “Percent of Maximum Control Relaxation” value ([4]; Oroxylin A 10 μM, after IBT (100 nM)) was 30.8 ± 5.2%, the “Percent of Maximum Control Relaxation” value ([4]; Oroxylin A 10 μM, after INDO (30 μM)) was 41.8 ± 5.6% and the “Percent of Maximum Control Relaxation” value ([4]; Oroxylin A 10 μM, after L-NNA (60 μM)) was 45.3 ± 6.0%. The “Percent of Maximum Control Relaxation” value ([4]; Oroxylin A 10 μM, after MCN (5 μM)) was 37.4 ± 4.5%, the “Percent of Maximum Control Relaxation” value ([4]; Oroxylin A 10 μM, after TEA (1 mM)) was 31.5 ± 6.6% and the “Percent of Maximum Control Relaxation” value ([4]; Oroxylin A 10 μM, after TEA (10 mM)) was 4.87 ± 1.5%. For the same compound, the “Percent of Maximum Control Relaxation” value ([4]; Oroxylin A 10 μM, control (no inhibitor), n=12) was 49.0 ± 3.4%, the “Percent of Maximum Control Relaxation” value ([4]; Oroxylin A 30 μM, after 4-AP (10 mM)) was 28.4 ± 6.7% and the “Percent of Maximum Control Relaxation” value ([4]; Oroxylin A 30 μM, after ETI (10 μM)) was 91.4 ± 1.5%. The “Percent of Maximum Control Relaxation” value ([4]; Oroxylin A 30 μM, after GLP (30 μM)) was 84.2 ± 7.1%, the “Percent of Maximum Control Relaxation” value ([4]; Oroxylin A 30 μM, after IBT (100 nM)) was 68.1 ± 7.2% and the “Percent of Maximum Control Relaxation” value ([4]; Oroxylin A 30 μM, after INDO (30 μM)) was 89.1 ± 3.6%. For the same compound, the “Percent of Maximum Control Relaxation” value ([4]; Oroxylin A 30 μM, after L-NNA (60 μM)) was 91.9 ± 2.8%, the “Percent of Maximum Control Relaxation” value ([4]; Oroxylin A 30 μM, after MCN (5 μM)) was 87.2 ± 2.6% and the “Percent of Maximum Control Relaxation” value ([4]; Oroxylin A 30 μM, after TEA (1 mM)) was 58.6 ± 6.7%. The “Percent of Maximum Control Relaxation” value ([4]; Oroxylin A 30 μM, after TEA (10 mM)) was 16.3 ± 2.0%, the “Percent of Maximum Control Relaxation” value ([4]; Oroxylin A 30 μM, control (no inhibitor), n=12) was 86.0 ± 2.6% and the EC50 ([4]; after ETI (10 μM), read-out: EC50) was 8.1 µM. The EC50 ([4]; after GLP (30 μM), read-out: EC50) was 11.2 µM, the EC50 ([4]; after IBT (100 nM), read-out: EC50) was 15 µM and the EC50 ([4]; after INDO (30 μM), read-out: EC50) was 10 µM. The EC50 ([4]; after L-NNA (60 μM), read-out: EC50) was 11.4 µM, the EC50 ([4]; after MCN (5 μM), read-out: EC50) was 10.5 µM and the EC50 ([4]; after TEA (1 mM), read-out: EC50) was 21.5 µM. The EC50 ([4]; after TEA (10 mM), read-out: EC50) was 39.3 µM, the EC50 ([4]; control (no inhibitor), n=12, read-out: EC50) was 8.4 µM and the EC50 ([4]; endothelium-denuded arteries, U-46619, n=12, read-out: EC50 of relaxation) was 8.4 µM. For the same compound, the EC50 ([4]; intact endothelium, pre-contracted with U-46619 (1 μM), n=4, read-out: EC50 of relaxation) was 7.9 µM, the “U-46619-induced active muscle tone” value ([4]; U-46619 (1 μM)) was “concentration-dependant inhibition” and the “U-46619-induced active muscle tone” value ([4]; U-46619 (1 μM), listed as Oroxylin A) was “in a concentration-dependent manner decreased”. For the same compound, the “Ca2+-activated K+ channel opening” value [4, 5] was “is a Ca^2+— activated K^+ channel opener”, the KATP channel opening [4, 5] was “is not a KATP channel opener” and the “concentration at which maximum relaxation was achieved” value ([4]; intact endothelium, U-46619 (1 μM)) was 30 µM.
